How the values were obtained:
Mu-type opioid receptor = Mu-type opioid receptor (Cavia porcellus, UniProt P97266); assay: Tested for inhibitory effect on binding of [3H]DAMGO to opioid receptor mu in guinea pig cerebellum membranes; type: cell membranes, Membrane
[1] = target: Opioid receptors; mu/kappa/delta (Homo sapiens, UniProt P41145+P41143+P35372); assay: Tested for opioid receptor agonistic activity in guinea pig ileum; type: functional, tissue-based, Cavia porcellus; conditions: target entry is the homologue from another species
[2] = target: Kappa-type opioid receptor (Cavia porcellus, UniProt P41144); assay: Tested for inhibitory effect on binding of [3H]bremazocine to opioid receptor kappa in guinea pig cerebellum membranes; type: cell membranes, Membrane
Cavia porcellus = species: Cavia porcellus; assay: Tested for naloxone pA2 activity in guinea pig ileum; type: functional

Sequence of Mu-type opioid receptor (P97266 whole entry): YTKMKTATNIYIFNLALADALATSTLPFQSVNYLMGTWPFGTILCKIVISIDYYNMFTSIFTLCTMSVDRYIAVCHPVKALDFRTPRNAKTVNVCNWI
Sequence of Kappa-type opioid receptor (P41144 whole entry): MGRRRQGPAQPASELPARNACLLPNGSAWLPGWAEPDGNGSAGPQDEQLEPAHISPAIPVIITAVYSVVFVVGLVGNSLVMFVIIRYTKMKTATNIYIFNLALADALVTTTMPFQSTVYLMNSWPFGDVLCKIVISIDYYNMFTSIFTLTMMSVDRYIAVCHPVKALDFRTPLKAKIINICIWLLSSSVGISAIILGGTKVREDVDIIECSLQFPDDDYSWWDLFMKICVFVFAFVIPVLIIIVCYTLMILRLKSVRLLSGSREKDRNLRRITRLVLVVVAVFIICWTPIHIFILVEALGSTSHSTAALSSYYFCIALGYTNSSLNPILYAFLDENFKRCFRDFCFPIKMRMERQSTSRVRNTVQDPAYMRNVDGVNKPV

| SMILES | Ki (Mu-type opioid receptor) [nM] | IC50 [1] [nM] | Ki [2] [nM] | Activity (Cavia porcellus) |
| --- | --- | --- | --- | --- |
| C=CCN(CC=C)[C@@H](Cc1ccc(O)cc1)C(=O)NCC(=O)NCC(=O)N[C@@H](Cc1ccccc1)C(=O)N[C@@H](CC(C)C)C(=O)N[C@@H](CCCN=C(N)N)C(=O)N[C@@H](CCCN=C(N)N)C(=O)N[C@H](C(=O)N[C@@H](CCCN=C(N)N)C(=O)N1CCC[C@@H]1C(=O)N[C@@H](CCCCN)C(=O)O)[C@@H](C)CC | 31.7 | 687 | 3.6 | – |
| CC[C@H](C)[C@H](NC(=O)[C@H](CCCN=C(N)N)NC(=O)[C@H](CCCN=C(N)N)NC(=O)[C@H](CC(C)C)NC(=O)[C@H](Cc1ccccc1)NC(=O)CNC(=O)CNC(=O)[C@H](Cc1ccc(O)cc1)NCC1CC1)C(=O)N[C@@H](CCCN=C(N)N)C(=O)N1CCC[C@@H]1C(=O)N[C@@H](CCCCN)C(=O)O | 9.6 | 2.16 | 0.02 | 7.3 |
| CN1CC[C@]23c4c5ccc(O)c4O[C@H]2[C@@H](O)C=C[C@H]3[C@H]1C5 [MORPHINE] | – | – | – | 8.2 |
| C=CCN[C@@H](Cc1ccc(O)cc1)C(=O)NCC(=O)NCC(=O)N[C@@H](Cc1ccccc1)C(=O)N[C@@H](CC(C)C)C(=O)N[C@@H](CCCN=C(N)N)C(=O)N[C@@H](CCCN=C(N)N)C(=O)N[C@H](C(=O)N[C@@H](CCCN=C(N)N)C(=O)N1CCC[C@@H]1C(=O)N[C@@H](CCCCN)C(=O)O)[C@@H](C)CC | – | – | – | 7.6 |
| CC[C@H](C)[C@H](NC(=O)[C@H](CCCN=C(N)N)NC(=O)[C@H](CCCN=C(N)N)NC(=O)[C@H](CC(C)C)NC(=O)[C@H](Cc1ccccc1)NC(=O)CNC(=O)CNC(=O)[C@@H](N)Cc1ccc(O)cc1)C(=O)N[C@@H](CCCN=C(N)N)C(=O)N1CCC[C@@H]1C(=O)N[C@@H](CCCCN)C(=O)O | – | – | – | 7.2 |

Source: ChEMBL document CHEMBL1126112 (J Med Chem, 1992)
